Results as given in patent US20240309005A1 (priority 2021, published 2024).
Converted amounts (≈) assume the structure as drawn.

Assay: physchem
Details: 25 °C, kinetic from dmso stock

## Cc1n[nH]c2nc(-c3ccc(NS(=O)(=O)c4cc(Cl)ccc4F)cc3)nc(NCCN3CCOCC3)c12 [Compound 26, 5-chloro-2-fluoro-N-(4-(3-methyl-4-((2-morpholinoethyl)amino)-1H-pyrazolo[3,4-d]pyrimidin-6-yl)phenyl)benzenesulfonamide]
pH 5, fessif
  solubility at 2 h: 285 µM (≈ 156 µg/mL)
pH 7.4, aqueous buffer
  solubility at 2 h: 5.1 µM (≈ 2.78 µg/mL)

## Cc1n[nH]c2nc(-c3ccc(NS(=O)(=O)c4cc(Cl)ccc4F)cc3)nc(O[C@@H]3CN(C)C[C@@H]3F)c12 [Compound 58, 5-chloro-2-fluoro-N-[4-(4-{[(3R,4S)-4-fluoro-1-methylpyrrolidin-3-yl]oxy}-3-methyl-1H-pyrazolo[3,4-d]pyrimidin-6-yl)phenyl]benzenesulfonamide]
pH 5, fessif
  solubility at 2 h: 262 µM (≈ 140 µg/mL)
pH 7.4, aqueous buffer
  solubility at 2 h: 0.92 µM (≈ 0.492 µg/mL)

## Cc1n[nH]c2nc(-c3ccc(NS(=O)(=O)c4cc(Cl)ccc4F)cc3)nc(N(C)CCN(C)C)c12 [Compound 154, 5-chloro-N-(4-(4-((2-(dimethylamino)ethyl)(methyl)amino)-3-methyl-1H-pyrazolo[3,4-d]pyrimidin-6-yl)phenyl)-2-fluorobenzenesulfonamide]
pH 5, fessif
  solubility at 2 h: 136 µM (≈ 70.5 µg/mL)
pH 7.4, aqueous buffer
  solubility at 2 h: 1.61 µM (≈ 0.834 µg/mL)

## Cc1n[nH]c2nc(-c3ccc(NS(=O)(=O)c4cc(Cl)ccc4F)cc3)nc(O[C@H]3CCNC3)c12 [Compound 48, 5-chloro-2-fluoro-N-(4-{3-methyl-4-[(3S)-pyrrolidin-3-yloxy]-1H-pyrazolo[3,4-d]pyrimidin-6-yl}phenyl)benzenesulfonamide]
pH 5, fessif
  solubility at 2 h: 178 µM (≈ 89.5 µg/mL)
pH 7.4, aqueous buffer
  solubility at 2 h: 63.6 µM (≈ 32 µg/mL)

## Cc1n[nH]c2nc(-c3ccc(NS(=O)(=O)C(C)C)cc3)nc(OC3CCN(C(C)C)CC3)c12 [Compound 5, N-(4-(4-((1-isopropylpiperidin-4-yl)oxy)-3-methyl-1H-pyrazolo[3,4-d]pyrimidin-6-yl)phenyl)propane-2-sulfonamide]
pH 5, fessif
  solubility at 2 h: 315 µM (≈ 149 µg/mL)
pH 7.4, aqueous buffer
  solubility at 2 h: 40 µM (≈ 18.9 µg/mL)

## Cc1n[nH]c2nc(-c3ccc(NS(=O)(=O)c4ccccn4)cc3)nc(O[C@@H]3CCN(C)C[C@@H]3F)c12 [Compound 66, N-[4-(4-{[(3S,4R)-3-fluoro-1-methylpiperidin-4-yl]oxy}-3-methyl-1H-pyrazolo[3,4-d]pyrimidin-6-yl)phenyl]pyridine-2-sulfonamide]
pH 5, fessif
  solubility at 2 h: 32.9 µM (≈ 16.4 µg/mL)
pH 7.4, aqueous buffer
  solubility at 2 h: 1.51 µM (≈ 0.751 µg/mL)

## [2H]C([2H])([2H])N1CC[C@@H](Oc2nc(-c3ccc(NS(=O)(=O)c4cc(Cl)ccc4F)cc3)nc3[nH]nc(C)c23)[C@@H](F)C1 [Compound 65, 5-chloro-2-fluoro-N-(4-(4-(((3S,4R)-3-fluoro-1-(methyl-d3)piperidin-4-yl)oxy)-3-methyl-1H-pyrazolo[3,4-d]pyrimidin-6-yl)phenyl)benzenesulfonamide]
pH 5, fessif
  solubility at 2 h: 210 µM (≈ 116 µg/mL)
pH 7.4, aqueous buffer
  solubility at 2 h: 0.73 µM (≈ 0.403 µg/mL)

## Cc1n[nH]c2nc(-c3ccc(NS(=O)(=O)c4cc(Cl)ccc4F)cc3)nc(OCCN(C)C)c12 [Compound 8, 5-chloro-N-(4-(4-(2-(dimethylamino)ethoxy)-3-methyl-1H-pyrazolo[3,4-d]pyrimidin-6-yl)phenyl)-2-fluorobenzenesulfonamide]
pH 5, fessif
  solubility at 2 h: 91 µM (≈ 46 µg/mL)
pH 7.4, aqueous buffer
  solubility at 2 h: 0.23 µM (≈ 0.116 µg/mL)

## Cc1n[nH]c2nc(-c3cnc(NS(=O)(=O)c4cc(Cl)ccc4F)nc3)nc(OC3CCN(C(C)C)CC3)c12 [Compound 12, 5-chloro-2-fluoro-N-(5-(4-((1-isopropylpiperidin-4-yl)oxy)-3-methyl-1H-pyrazolo[3,4-d]pyrimidin-6-yl)pyrimidin-2-yl) benzenesulfonamide]
pH 5, fessif
  solubility at 2 h: 33 µM (≈ 18.5 µg/mL)
pH 7.4, aqueous buffer
  solubility at 2 h: 2.5 µM (≈ 1.4 µg/mL)

## COc1ccnc(S(=O)(=O)Nc2ccc(-c3nc(O[C@@H]4CCN(C)C[C@@H]4F)c4c(C)n[nH]c4n3)cc2)c1 [Compound 62, N-[4-(4-{[(3S,4R)-3-fluoro-1-methylpiperidin-4-yl]oxy}-3-methyl-1H-pyrazolo[3,4-d]pyrimidin-6-yl)phenyl]-4-methoxypyridine-2-sulfonamide]
pH 5, fessif
  solubility at 2 h: 16.2 µM (≈ 8.55 µg/mL)
pH 7.4, aqueous buffer
  solubility at 2 h: 0.36 µM (≈ 0.19 µg/mL)

## Cc1n[nH]c2nc(-c3ccc(NS(=O)(=O)c4cc(F)ccc4F)cc3)nc(NCCN3CCCC3)c12 [Compound 33, 2,5-difluoro-N-(4-(3-methyl-4-((2-(pyrrolidin-1-yl)ethyl)amino)-1H-pyrazolo[3,4-d]pyrimidin-6-yl)phenyl)benzenesulfonamide]
pH 5, fessif
  solubility at 2 h: 298 µM (≈ 153 µg/mL)
pH 7.4, aqueous buffer
  solubility at 2 h: 3.8 µM (≈ 1.95 µg/mL)

## Cc1n[nH]c2nc(-c3ccc(NS(=O)(=O)c4cc(Cl)ccc4F)cc3)nc(OC3CN(C(C)C)C3)c12 [Compound 17, 5-chloro-2-fluoro-N-(4-[4-[(1-isopropylazetidin-3-yl)oxy]-3-methyl-1H-pyrazolo[3,4-d]pyrimidin-6-yl]phenyl)benzenesulfonamide]
pH 5, fessif
  solubility at 2 h: 202 µM (≈ 107 µg/mL)
pH 7.4, aqueous buffer
  solubility at 2 h: 1.12 µM (≈ 0.595 µg/mL)

## Cc1n[nH]c2nc(-c3ccc(NS(=O)(=O)c4cc(Cl)ccc4F)cc3)nc(O[C@H]3CCNC[C@@H]3F)c12 [Compound 47, 5-chloro-2-fluoro-N-(4-(4-(((3S,4S)-3-fluoropiperidin-4-yl)oxy)-3-methyl-1H-pyrazolo[3,4-d]pyrimidin-6-yl)phenyl)benzenesulfonamide]
pH 5, fessif
  solubility at 2 h: 211 µM (≈ 113 µg/mL)
pH 7.4, aqueous buffer
  solubility at 2 h: 16.8 µM (≈ 8.99 µg/mL)

## Cc1n[nH]c2nc(-c3ccc(NS(=O)(=O)N4CCCCC4)cc3)nc(OC3CCN(C(C)C)CC3)c12 [Compound 6, N-(4-(4-((1-isopropylpiperidin-4-yl)oxy)-3-methyl-1H-pyrazolo[3,4-d]pyrimidin-6-yl)phenyl)piperidine-1-sulfonamide]
pH 5, fessif
  solubility at 2 h: 258 µM (≈ 133 µg/mL)
pH 7.4, aqueous buffer
  solubility at 2 h: 299 µM (≈ 154 µg/mL)

## Cc1n[nH]c2nc(-c3ccc(NS(=O)(=O)c4ccc(CN)cc4)cc3)nc(OC3CCN(C(C)C)CC3)c12 [Compound 4, 4-(aminomethyl)-N-(4-(4-((1-isopropylpiperidin-4-yl)oxy)-3-methyl-1H-pyrazolo[3,4-d]pyrimidin-6-yl)phenyl)benzenesulfonamide]
pH 5, fessif
  solubility at 2 h: 17.6 µM (≈ 9.43 µg/mL)
pH 7.4, aqueous buffer
  solubility at 2 h: 293 µM (≈ 157 µg/mL)

## Cc1n[nH]c2nc(-c3ccc(NS(=O)(=O)c4cc(Cl)ccc4F)cc3)nc(O[C@@H]3CNCC3(F)F)c12 [Compound 49, 5-chloro-N-(4-{4-[(4,4-difluoropyrrolidin-3-yl)oxy]-3-methyl-1H-pyrazolo[3,4-d]pyrimidin-6-yl}phenyl)-2-fluorobenzenesulfonamide]
pH 5, fessif
  solubility at 2 h: 265 µM (≈ 143 µg/mL)
pH 7.4, aqueous buffer
  solubility at 2 h: 0.27 µM (≈ 0.146 µg/mL)

## Cc1n[nH]c2nc(-c3ccc(NS(=O)(=O)c4cc(Cl)ccc4F)cc3)nc(O[C@H]3CCNC[C@H]3F)c12 [Compound 46, 5-chloro-2-fluoro-N-(4-(4-(((3R,4S)-3-fluoropiperidin-4-yl)oxy)-3-methyl-1H-pyrazolo[3,4-d]pyrimidin-6-yl)phenyl)benzenesulfonamide]
pH 5, fessif
  solubility at 2 h: 174 µM (≈ 93.1 µg/mL)
pH 7.4, aqueous buffer
  solubility at 2 h: 0.7 µM (≈ 0.374 µg/mL)

## Cc1n[nH]c2nc(-c3ccc(NS(=O)(=O)c4cc(Cl)ccc4F)cc3)nc(NC3CN(C(C)C)C3)c12 [Compound 25, 5-chloro-2-fluoro-N-(4-(4-((1-isopropylazetidin-3-yl)amino)-3-methyl-1H-pyrazolo[3,4-d]pyrimidin-6-yl)phenyl)benzenesulfonamide]
pH 5, fessif
  solubility at 2 h: 301 µM (≈ 160 µg/mL)
pH 7.4, aqueous buffer
  solubility at 2 h: 15.6 µM (≈ 8.27 µg/mL)

## Cc1n[nH]c2nc(-c3ccc(NS(=O)(=O)c4cccnc4)cc3)nc(NCCN(C)CCO)c12 [Compound 21, N-[4-[4-([2-[(2-hydroxyethyl)(methyl)amino]ethyl]amino)-3-methyl-1H-pyrazolo[3,4-d]pyrimidin-6-yl]phenyl]pyridine-3-sulfonamide]
pH 5, fessif
  solubility at 2 h: 302 µM (≈ 146 µg/mL)
pH 7.4, aqueous buffer
  solubility at 2 h: 2.26 µM (≈ 1.09 µg/mL)

## CCN1C[C@H](F)[C@H](Oc2nc(-c3ccc(NS(=O)(=O)c4cc(Cl)ccc4F)cc3)nc3[nH]nc(C)c23)C1 [Compound 56, 5-chloro-N-[4-(4-{[(3R,4S)-1-ethyl-4-fluoropyrrolidin-3-yl]oxy}-3-methyl-1H-pyrazolo[3,4-d]pyrimidin-6-yl)phenyl]-2-fluorobenzenesulfonamide]
pH 5, fessif
  solubility at 2 h: 73.7 µM (≈ 40.5 µg/mL)
pH 7.4, aqueous buffer
  solubility at 2 h: 0.48 µM (≈ 0.264 µg/mL)

## Cc1n[nH]c2nc(-c3ccc(NS(=O)(=O)c4cc(Cl)ccc4F)cc3)nc(NCCN(C)C)c12 [Compound 9, 5-chloro-N-(4-(4-((2-(dimethylamino)ethyl)amino)-3-methyl-1H-pyrazolo[3,4-d]pyrimidin-6-yl)phenyl)-2-fluorobenzenesulfonamide]
pH 5, fessif
  solubility at 2 h: 289 µM (≈ 146 µg/mL)
pH 7.4, aqueous buffer
  solubility at 2 h: 8.5 µM (≈ 4.28 µg/mL)

## C=CS(=O)(=O)Nc1ccc(-c2nc(OC3CCN(C(C)C)CC3)c3c(C)n[nH]c3n2)cc1 [Compound 1, N-(4-(4-((1-isopropylpiperidin-4-yl)oxy)-3-methyl-1H-pyrazolo[3,4-d]pyrimidin-6-yl)phenyl)ethenesulfonamide]
pH 5, fessif
  solubility at 2 h: 279 µM (≈ 127 µg/mL)
pH 7.4, aqueous buffer
  solubility at 2 h: 290 µM (≈ 132 µg/mL)

## Cc1n[nH]c2nc(-c3ccc(NS(=O)(=O)c4cc(Cl)ccc4F)cc3)nc(OC3CCNCC3)c12 [Compound 55, 5-chloro-2-fluoro-N-{4-[3-methyl-4-(piperidin-4-yloxy)-1H-pyrazolo[3,4-d]pyrimidin-6-yl]phenyl}benzenesulfonamide]
pH 5, fessif
  solubility at 2 h: 244 µM (≈ 126 µg/mL)
pH 7.4, aqueous buffer
  solubility at 2 h: 1.37 µM (≈ 0.708 µg/mL)

## Cc1n[nH]c2nc(-c3ccc(NS(=O)(=O)c4cc(Cl)ccc4F)cc3)nc(NCc3ccncc3)c12 [Compound 13, 5-chloro-2-fluoro-N-(4-(3-methyl-4-((pyridin-4-ylmethyl)amino)-1H-pyrazolo[3,4-d]pyrimidin-6-yl)phenyl)benzenesulfonamide]
pH 5, fessif
  solubility at 2 h: 5.81 µM (≈ 3.04 µg/mL)
pH 7.4, aqueous buffer
  solubility at 2 h: < 0.12 µM

## Cc1n[nH]c2nc(-c3ccc(NS(=O)(=O)c4cc(Cl)ccc4F)cc3)nc(O[C@@H]3CCN(CC(F)F)C[C@@H]3F)c12 [Compound 64, 5-chloro-N-[4-(4-{[(3S,4R)-1-(2,2-difluoroethyl)-3-fluoropiperidin-4-yl]oxy}-3-methyl-1H-pyrazolo[3,4-d]pyrimidin-6-yl)phenyl]-2-fluorobenzenesulfonamide]
pH 5, fessif
  solubility at 2 h: 6.43 µM (≈ 3.85 µg/mL)
pH 7.4, aqueous buffer
  solubility at 2 h: < 0.24 µM

## Cc1n[nH]c2nc(-c3ccc(NS(=O)(=O)c4cc(Cl)ccc4F)cc3)nc(O[C@@H]3CCNC[C@H]3F)c12 [Compound 53, 5-chloro-2-fluoro-N-[4-(4-{[(3R,4R)-3-fluoropiperidin-4-yl]oxy}-3-methyl-1H-pyrazolo[3,4-d]pyrimidin-6-yl)phenyl]benzenesulfonamide]
pH 5, fessif
  solubility at 2 h: 283 µM (≈ 151 µg/mL)
pH 7.4, aqueous buffer
  solubility at 2 h: 11.3 µM (≈ 6.05 µg/mL)

## Cc1n[nH]c2nc(-c3ccc(NS(=O)(=O)c4ccccn4)cc3)nc(NCCN(C)CCO)c12 [Compound 20]
pH 5, fessif
  solubility at 2 h: 277 µM (≈ 134 µg/mL)
pH 7.4, aqueous buffer
  solubility at 2 h: 82 µM (≈ 39.6 µg/mL)
